Results reported in BindingDB's records for doi:10.1021/jm001134q (Linkoping University, 2001).
pKi: −log10 of the molar value.

Biological target: T1, Dimer of Gag-Pol polyprotein [489-587] (Human immunodeficiency virus 1, UniProt P12497)
T1 construct: 489-587
Test: Protease Inhibition Assay
Settings: pH 5; 30 °C
Protocol: A fluorimetric assay was used to determine the effects of the inhibitors on HIV-1 protease. This assay used an internally quenched fluorescent peptide substrate. The measurements were performed in 96-well plates with a Fluoroscan plate reader. Excitation and emission wavelengths were 355 nm and 500 nm, respectively.

| SMILES | pKi |
| --- | --- |
| O=C(N[C@H]1c2ccccc2C[C@H]1O)[C@H](OCc1cc(F)ccc1F)[C@H](O)[C@@H](O)[C@@H](OCc1cc(F)ccc1F)C(=O)N[C@H]1c2ccccc2C[C@H]1O [(2R,3R,4R,5R)-2,5-bis[(2,5-difluorophenyl)methoxy]-3,4-dihydroxy-N,N'-bis[(1S,2R)-2-hydroxy-2,3-dihydro-1H-inden-1-yl]hexanediamide] | 8.48 |
| O=C(N[C@H]1c2ccccc2C[C@H]1O)[C@H](OCc1ccccc1F)[C@H](O)[C@@H](O)[C@@H](OCc1ccccc1F)C(=O)N[C@H]1c2ccccc2C[C@H]1O [(2R,3R,4R,5R)-2,5-bis[(2-fluorophenyl)methoxy]-3,4-dihydroxy-N,N'-bis[(1S,2R)-2-hydroxy-2,3-dihydro-1H-inden-1-yl]hexanediamide] | 8.49 |
| O=C(N[C@H]1c2ccccc2C[C@H]1O)[C@H](OCc1cc(F)cc(F)c1)[C@H](O)[C@@H](O)[C@@H](OCc1cc(F)cc(F)c1)C(=O)N[C@H]1c2ccccc2C[C@H]1O [(2R,3R,4R,5R)-2,5-bis[(3,5-difluorophenyl)methoxy]-3,4-dihydroxy-N,N'-bis[(1S,2R)-2-hydroxy-2,3-dihydro-1H-inden-1-yl]hexanediamide] | 8.30 |
| O=C(N[C@H]1c2ccccc2C[C@H]1O)[C@H](OCc1cccc(F)c1)[C@H](O)[C@@H](O)[C@@H](OCc1cccc(F)c1)C(=O)N[C@H]1c2ccccc2C[C@H]1O [(2R,3R,4R,5R)-2,5-bis[(3-fluorophenyl)methoxy]-3,4-dihydroxy-N,N'-bis[(1S,2R)-2-hydroxy-2,3-dihydro-1H-inden-1-yl]hexanediamide] | 8.15 |
| O=C(N[C@H]1c2ccccc2C[C@H]1O)[C@H](OCc1ccc(F)cc1)[C@H](O)[C@@H](O)[C@@H](OCc1ccc(F)cc1)C(=O)N[C@H]1c2ccccc2C[C@H]1O [(2R,3R,4R,5R)-2,5-bis[(4-fluorophenyl)methoxy]-3,4-dihydroxy-N,N'-bis[(1S,2R)-2-hydroxy-2,3-dihydro-1H-inden-1-yl]hexanediamide] | 8.27 |
| O=C(N[C@H]1c2ccccc2C[C@H]1O)[C@H](OCc1cccc(F)c1F)[C@H](O)[C@@H](O)[C@@H](OCc1cccc(F)c1F)C(=O)N[C@H]1c2ccccc2C[C@H]1O [N1,N6-Bis-[(2R)-hydroxy-1(S)-indanyl]-(2R,3R,4R,5R)-2.5-bis-(2,3-difluorobenzyloxy)-3,4-dihydroxyhexanediamide] | 8.40 |
| O=C(N[C@H]1c2ccccc2C[C@H]1O)[C@H](OCc1ccc(F)cc1F)[C@H](O)[C@@H](O)[C@@H](OCc1ccc(F)cc1F)C(=O)N[C@H]1c2ccccc2C[C@H]1O [N1,N6-Bis-[(2R)-hydroxy-1(S)-indanyl]-(2R,3R,4R,5R)-2.5-bis-(2,4-difluorobenzyloxy)-3,4-dihydroxyhexanediamide] | 8.78 |
| O=C(N[C@H]1c2ccccc2C[C@H]1O)[C@H](OCc1c(F)cccc1F)[C@H](O)[C@@H](O)[C@@H](OCc1c(F)cccc1F)C(=O)N[C@H]1c2ccccc2C[C@H]1O [N1,N6-Bis-[(2R)-hydroxy-1(S)-indanyl]-(2R,3R,4R,5R)-2.5-bis-(2,6-difluorobenzyloxy)-3,4-dihydroxyhexanediamide] | 8.79 |
| O=C(N[C@H]1c2ccccc2C[C@H]1O)[C@H](OCc1ccc(F)c(F)c1)[C@H](O)[C@@H](O)[C@@H](OCc1ccc(F)c(F)c1)C(=O)N[C@H]1c2ccccc2C[C@H]1O [N1,N6-Bis-[(2R)-hydroxy-1(S)-indanyl]-(2R,3R,4R,5R)-2.5-bis-(3,4-difluorobenzyloxy)-3,4-dihydroxyhexanediamide] | 8.41 |
| O=C(N[C@H]1c2ccccc2C[C@H]1O)[C@H](OCc1ccccc1)[C@H](O)[C@@H](O)[C@@H](OCc1ccccc1)C(=O)N[C@H]1c2ccccc2C[C@H]1O [symmetric/asymmetric inhibitor 2] | 8.91 |
